# ± gives the standard deviation of the averaged measurements or the uncertainty stated by the source.
# Key:
# [1] = test system: Caenorhabditis briggsae JU1348; assay: Kaplan-Meier median lifespan of treated cohort (days); higher = longer lifespan; conditions: exposure: chronic from day 1 of adulthood, single dose per compound (concentration not stated in sheet)
# Description: (§1)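 Caenorhabditis lifespan assay (CITP). Synchronised hermaphrodites were moved on the first day of adulthood onto 35 mm NGM plates with live E. coli OP50-1 and 51 uM FUdR, with the compound spread on the plate. Worms were kept at 20 C and scored for survival.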
# [2] = test system: Caenorhabditis elegans MY16; assay: as above; conditions: exposure: chronic from day 1 of adulthood, single dose per compound (concentration not stated in sheet)
# Description: as §1
# [3] = test system: Caenorhabditis briggsae HK104; assay: as above; conditions: exposure: chronic from day 1 of adulthood, single dose per compound (concentration not stated in sheet)
# Description: as §1
# [4] = test system: Caenorhabditis elegans JU775; assay: as above; conditions: exposure: chronic from day 1 of adulthood, single dose per compound (concentration not stated in sheet)
# Description: as §1
# [5] = test system: Caenorhabditis briggsae AF16; assay: as above; conditions: exposure: chronic from day 1 of adulthood, single dose per compound (concentration not stated in sheet)
# Description: as §1
# [6] = test system: Caenorhabditis elegans N2; assay: as above; conditions: exposure: chronic from day 1 of adulthood, single dose per compound (concentration not stated in sheet)
# Description: as §1
# [7] = test system: Caenorhabditis briggsae JU1348; assay: mean adult lifespan of treated plate (days); higher = longer lifespan; conditions: exposure: chronic from day 1 of adulthood
# Description: (§2)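 Dose-response lifespan assays in three C. briggsae strains (AF16, HK104, JU1348), run per plate (35-40 animals) on NGM with live OP50-1 and 51 uM FUdR at 20 C. Compound was added to the plate surface and worms were exposed from the first day of adulthood.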
# [8] = test system: Caenorhabditis briggsae HK104; assay: as above; conditions: exposure: chronic from day 1 of adulthood
# Description: as §2
# [9] = test system: Caenorhabditis briggsae AF16; assay: as above; conditions: exposure: chronic from day 1 of adulthood
# Description: as §2
# [10] = test system: Caenorhabditis briggsae JU1348; assay: Kaplan-Meier median lifespan of treated plate (days); higher = longer lifespan; conditions: exposure: chronic from day 1 of adulthood
# Description: as §2
# [11] = test system: Caenorhabditis briggsae HK104; assay: as above; conditions: exposure: chronic from day 1 of adulthood
# Description: as §2
# [12] = test system: Caenorhabditis briggsae AF16; assay: as above; conditions: exposure: chronic from day 1 of adulthood
# Description: as §2
# [13] = test system: Caenorhabditis briggsae JU1348; assay: mean adult lifespan of treated cohort (days); higher = longer lifespan; conditions: exposure: chronic from day 1 of adulthood, single dose per compound (concentration not stated in sheet)
# Description: as §1
# [14] = test system: Caenorhabditis elegans MY16; assay: as above; conditions: exposure: chronic from day 1 of adulthood, single dose per compound (concentration not stated in sheet)
# Description: as §1
# [15] = test system: Caenorhabditis briggsae HK104; assay: as above; conditions: exposure: chronic from day 1 of adulthood, single dose per compound (concentration not stated in sheet)
# Description: as §1
# [16] = test system: Caenorhabditis elegans JU775; assay: as above; conditions: exposure: chronic from day 1 of adulthood, single dose per compound (concentration not stated in sheet)
# Description: as §1
# [17] = test system: Caenorhabditis briggsae AF16; assay: as above; conditions: exposure: chronic from day 1 of adulthood, single dose per compound (concentration not stated in sheet)
# Description: as §1
# [18] = test system: Caenorhabditis elegans N2; assay: as above; conditions: exposure: chronic from day 1 of adulthood, single dose per compound (concentration not stated in sheet)
# Description: as §1
smiles,measurement,setting,value
Cc1ccc2c(c1)sc(-c1ccc(N(C)C)cc1)[n+]2C [Thioflavin T],Kaplan-Meier median lifespan,[1],28.1 ± 4.4
same,Kaplan-Meier median lifespan,[2],27.2 ± 3.1
same,Kaplan-Meier median lifespan,[3],41.4 ± 3.5
same,Kaplan-Meier median lifespan,[4],27.7 ± 2.4
same,Kaplan-Meier median lifespan,[5],31.7 ± 5.8
same,Kaplan-Meier median lifespan,[6],21.4 ± 5
same,mean adult lifespan of treated plate,[7]; 0.5 µM,24.1 ± 1.1
same,mean adult lifespan of treated plate,[7]; 5 µM,24.3 ± 1.2
same,mean adult lifespan of treated plate,[7]; 5.3 µM,19.49 ± 0.17
same,mean adult lifespan of treated plate,[7]; 25 µM,25.9 ± 1.1
same,mean adult lifespan of treated plate,[7]; 26.5 µM,28.3 ± 1.2
same,mean adult lifespan of treated plate,[7]; 100 µM,21.5 ± 1.7
same,mean adult lifespan of treated plate,[7]; 106 µM,5.01 ± 0.12
same,mean adult lifespan of treated plate,[7]; 530 µM,4.33 ± 0.092
same,mean adult lifespan of treated plate,[8]; 5.3 µM,33.5 ± 1.7
same,mean adult lifespan of treated plate,[8]; 26.5 µM,30.8 ± 3.1
same,mean adult lifespan of treated plate,[8]; 106 µM,5.61 ± 0.26
same,mean adult lifespan of treated plate,[8]; 530 µM,5.71 ± 0.35
same,mean adult lifespan of treated plate,[9]; 5.3 µM,28.1 ± 1.5
same,mean adult lifespan of treated plate,[9]; 26.5 µM,17 ± 1
same,mean adult lifespan of treated plate,[9]; 106 µM,5.48 ± 0.12
same,mean adult lifespan of treated plate,[9]; 530 µM,5.75 ± 0.26
same,Kaplan-Meier median lifespan,[10]; 0.5 µM,24 ± 3.1
same,Kaplan-Meier median lifespan,[10]; 5 µM,23.6 ± 2.9
same,Kaplan-Meier median lifespan,[10]; 25 µM,26.2 ± 3.4
same,Kaplan-Meier median lifespan,[10]; 26.5 µM,33 ± 2.8
same,Kaplan-Meier median lifespan,[10]; 100 µM,22.4 ± 7
same,Kaplan-Meier median lifespan,[10]; 106 µM,4.67 ± 0.58
same,Kaplan-Meier median lifespan,[10]; 530 µM,4
same,Kaplan-Meier median lifespan,[11]; 5.3 µM,33 ± 2.8
same,Kaplan-Meier median lifespan,[11]; 26.5 µM,35
same,Kaplan-Meier median lifespan,[11]; 106 µM,6 ± 1.4
same,Kaplan-Meier median lifespan,[11]; 530 µM,5.5 ± 2.1
same,Kaplan-Meier median lifespan,[12]; 5.3 µM,28
same,Kaplan-Meier median lifespan,[12]; 26.5 µM,24
same,Kaplan-Meier median lifespan,[12]; 106 µM,5.67 ± 1.1
same,Kaplan-Meier median lifespan,[12]; 530 µM,5.67 ± 1.1
same,mean adult lifespan of treated cohort,[13],27.6 ± 0.89
same,mean adult lifespan of treated cohort,[14],26.7 ± 0.74
same,mean adult lifespan of treated cohort,[15],39.5 ± 1
same,mean adult lifespan of treated cohort,[16],25.5 ± 1
same,mean adult lifespan of treated cohort,[17],31.3 ± 1.2
same,mean adult lifespan of treated cohort,[18],20.2 ± 0.93
O=C(O)CCC(=O)C(=O)O [alpha-ketoglutaric acid],Kaplan-Meier median lifespan,[1],25.9 ± 2.3
same,Kaplan-Meier median lifespan,[2],25.3 ± 1.4
same,Kaplan-Meier median lifespan,[3],34.7 ± 2.5
same,Kaplan-Meier median lifespan,[4],25.6 ± 1.7
same,Kaplan-Meier median lifespan,[5],26.3 ± 1.7
same,Kaplan-Meier median lifespan,[6],21.9 ± 1.6
same,mean adult lifespan of treated plate,[7]; 100 µM,23.3 ± 1.4
same,mean adult lifespan of treated plate,[7]; 500 µM,23.5 ± 1.1
same,mean adult lifespan of treated plate,[7]; 800 µM,22.7 ± 1.1
same,mean adult lifespan of treated plate,[7]; 1000 µM,25.5 ± 1.3
same,mean adult lifespan of treated plate,[7]; 4000 µM,24.6 ± 1.9
same,mean adult lifespan of treated plate,[7]; 16000 µM,14.7 ± 1.2
same,mean adult lifespan of treated plate,[7]; 40000 µM,11.7 ± 0.54
same,mean adult lifespan of treated plate,[8]; 100 µM,33.8 ± 1.2
same,mean adult lifespan of treated plate,[8]; 500 µM,35.3 ± 1.6
same,mean adult lifespan of treated plate,[8]; 800 µM,33.7 ± 1.4
same,mean adult lifespan of treated plate,[8]; 1000 µM,36.7 ± 1.3
same,mean adult lifespan of treated plate,[8]; 4000 µM,33 ± 1.4
same,mean adult lifespan of treated plate,[8]; 16000 µM,23.6 ± 1.1
same,mean adult lifespan of treated plate,[8]; 40000 µM,24.7 ± 1.1
same,mean adult lifespan of treated plate,[9]; 100 µM,27 ± 1.5
same,mean adult lifespan of treated plate,[9]; 500 µM,21.7 ± 1.1
same,mean adult lifespan of treated plate,[9]; 800 µM,24.9 ± 0.84
same,mean adult lifespan of treated plate,[9]; 1000 µM,27.5 ± 1.4
same,mean adult lifespan of treated plate,[9]; 4000 µM,26.5 ± 1.3
same,mean adult lifespan of treated plate,[9]; 16000 µM,20.2 ± 1.1
same,mean adult lifespan of treated plate,[9]; 40000 µM,20.3 ± 1
same,Kaplan-Meier median lifespan,[10]; 100 µM,23.3 ± 2.5
same,Kaplan-Meier median lifespan,[10]; 500 µM,25.3 ± 2.5
same,Kaplan-Meier median lifespan,[10]; 800 µM,23 ± 4.2
same,Kaplan-Meier median lifespan,[10]; 1000 µM,28 ± 3
same,Kaplan-Meier median lifespan,[10]; 4000 µM,22.8 ± 5.2
same,Kaplan-Meier median lifespan,[10]; 16000 µM,12.5 ± 1
same,Kaplan-Meier median lifespan,[10]; 40000 µM,11 ± 1.1
same,Kaplan-Meier median lifespan,[11]; 100 µM,36 ± 4.6
same,Kaplan-Meier median lifespan,[11]; 500 µM,37.2 ± 4
same,Kaplan-Meier median lifespan,[11]; 800 µM,36.3 ± 4.7
same,Kaplan-Meier median lifespan,[11]; 1000 µM,37.2 ± 6.3
same,Kaplan-Meier median lifespan,[11]; 4000 µM,35 ± 5
same,Kaplan-Meier median lifespan,[11]; 16000 µM,23.8 ± 2.1
same,Kaplan-Meier median lifespan,[11]; 40000 µM,25.8 ± 2.1
same,Kaplan-Meier median lifespan,[12]; 100 µM,26.5 ± 1.7
same,Kaplan-Meier median lifespan,[12]; 500 µM,25 ± 2.2
same,Kaplan-Meier median lifespan,[12]; 800 µM,26
same,Kaplan-Meier median lifespan,[12]; 1000 µM,28 ± 2.5
same,Kaplan-Meier median lifespan,[12]; 4000 µM,25.9 ± 5.6
same,Kaplan-Meier median lifespan,[12]; 16000 µM,19 ± 1.6
same,Kaplan-Meier median lifespan,[12]; 40000 µM,18.5 ± 1.9
same,mean adult lifespan of treated cohort,[13],24.6 ± 0.77
same,mean adult lifespan of treated cohort,[14],24.9 ± 0.53
same,mean adult lifespan of treated cohort,[15],33.8 ± 0.71
same,mean adult lifespan of treated cohort,[16],24.6 ± 0.58
same,mean adult lifespan of treated cohort,[17],25.9 ± 0.89
same,mean adult lifespan of treated cohort,[18],21.4 ± 0.45
O=C(O)CCCCC1CCSS1 (stereo not drawn) [alpha-lipoic acid],Kaplan-Meier median lifespan,[1],25.8 ± 1.5
same,Kaplan-Meier median lifespan,[2],15.6 ± 2.1
same,Kaplan-Meier median lifespan,[3],37.2 ± 1.3
same,Kaplan-Meier median lifespan,[4],18.4 ± 4.2
same,Kaplan-Meier median lifespan,[5],28.4 ± 3.2
same,Kaplan-Meier median lifespan,[6],19.2 ± 1.5
same,mean adult lifespan of treated cohort,[13],26.4 ± 0.83
same,mean adult lifespan of treated cohort,[14],16.3 ± 0.61
same,mean adult lifespan of treated cohort,[15],35.9 ± 0.96
same,mean adult lifespan of treated cohort,[16],18.3 ± 0.61
same,mean adult lifespan of treated cohort,[17],27.5 ± 0.76
same,mean adult lifespan of treated cohort,[18],19.2 ± 0.4
CC(=O)Oc1ccccc1C(=O)O [aspirin],Kaplan-Meier median lifespan,[1],28.3 ± 4.4
same,Kaplan-Meier median lifespan,[2],16.4 ± 1.4
same,Kaplan-Meier median lifespan,[3],37.5 ± 1.9
same,Kaplan-Meier median lifespan,[4],17.4 ± 4.3
same,Kaplan-Meier median lifespan,[5],27.8 ± 3.7
same,Kaplan-Meier median lifespan,[6],17.5 ± 1.1
same,mean adult lifespan of treated cohort,[13],28 ± 1.1
same,mean adult lifespan of treated cohort,[14],17 ± 0.49
same,mean adult lifespan of treated cohort,[15],37.2 ± 1
same,mean adult lifespan of treated cohort,[16],18.3 ± 0.55
same,mean adult lifespan of treated cohort,[17],27 ± 0.81
same,mean adult lifespan of treated cohort,[18],17.9 ± 0.3
COc1cc(/C=C/C(=O)CC(=O)/C=C/c2ccc(O)c(OC)c2)ccc1O [curcumin],Kaplan-Meier median lifespan,[1],21.2 ± 2.8
same,Kaplan-Meier median lifespan,[2],15.3 ± 1.6
same,Kaplan-Meier median lifespan,[3],30.7 ± 2.2
same,Kaplan-Meier median lifespan,[4],19.3 ± 2
same,Kaplan-Meier median lifespan,[5],23.2 ± 1.7
same,Kaplan-Meier median lifespan,[6],17.7 ± 0.82
same,mean adult lifespan of treated cohort,[13],21.3 ± 0.66
same,mean adult lifespan of treated cohort,[14],15.6 ± 0.46
same,mean adult lifespan of treated cohort,[15],30.5 ± 0.87
same,mean adult lifespan of treated cohort,[16],19.5 ± 0.66
same,mean adult lifespan of treated cohort,[17],21.9 ± 0.82
same,mean adult lifespan of treated cohort,[18],17.1 ± 0.34
O=c1c(O)c(-c2ccc(O)c(O)c2)oc2cc(O)cc(O)c12 [quercetin],Kaplan-Meier median lifespan,[1],24.8 ± 2.5
same,Kaplan-Meier median lifespan,[2],15 ± 1.8
same,Kaplan-Meier median lifespan,[3],35.5 ± 1.7
same,Kaplan-Meier median lifespan,[4],15.2 ± 2.1
same,Kaplan-Meier median lifespan,[5],28 ± 2.2
same,Kaplan-Meier median lifespan,[6],17.8 ± 0.96
same,mean adult lifespan of treated cohort,[13],25.2 ± 0.76
same,mean adult lifespan of treated cohort,[14],15.9 ± 0.49
same,mean adult lifespan of treated cohort,[15],33 ± 0.87
same,mean adult lifespan of treated cohort,[16],17.4 ± 0.69
same,mean adult lifespan of treated cohort,[17],26.5 ± 0.79
same,mean adult lifespan of treated cohort,[18],17.6 ± 0.32
CCCC(CCC)C(=O)O [valproic acid],Kaplan-Meier median lifespan,[1],21.9 ± 1.2
same,Kaplan-Meier median lifespan,[2],14.6 ± 0.98
same,Kaplan-Meier median lifespan,[3],35.3 ± 1.9
same,Kaplan-Meier median lifespan,[4],17.4 ± 3.1
same,Kaplan-Meier median lifespan,[5],22 ± 2.6
same,Kaplan-Meier median lifespan,[6],17.6 ± 0.54
same,mean adult lifespan of treated cohort,[13],21.9 ± 0.85
same,mean adult lifespan of treated cohort,[14],14.7 ± 0.48
same,mean adult lifespan of treated cohort,[15],32.9 ± 0.96
same,mean adult lifespan of treated cohort,[16],18.2 ± 0.56
same,mean adult lifespan of treated cohort,[17],21.8 ± 0.98
same,mean adult lifespan of treated cohort,[18],17.6 ± 0.42

# Source: the supplement of paper PMC5321775
